Laboratory results published in patent US10942183B2, “Methods of detecting progesterone receptor and of detecting an expression level” (REGENTS OF THE UNIVERSITY OF MINNESOTA, priority 2017, dated 2021).

Tests used:
breast cancer = conditions: human, in vivo; cited from earlier work
[1] = test system: PR Ser294 phosphorylation; assay: Breast tumor explants, phospho-Ser294 PR IHC; type: cell-based, human; conditions: progesterone 10 nM, 2 hours, IHC, n=6
Text: De-identified breast tumor samples were collected after surgery and immediately processed for tissue explant maintenance on sponges in cell culture medium, as previously described (Ravindranathan et al. Nature Communications 2013, 4:1923). Samples were derived from six patients pathologically diagnosed with invasive ductal carcinoma (IDC) and scored positive for ER (94-100%) and PR (1-100%), and negative for HER2 expression. […] In additional experiments, six explants were similarly treated with estrogen or progesterone (2 hours) but in combination with 1 uM U0126 (to inhibit ERKs 1/2) and phospho-Ser294 PR levels were measured by IHC.
ER+ luminal tumors were maintained as explants as above and instead treated with either vehicle or progesterone (10 nM) for 2 hours in the presence or absence of the MEK1/2 inhibitor U0126 (1 nM) prior to IHC staining using specific antibodies for total and phospho-Ser294 PR as well as ER-alpha and phospho-ERK1/2 (n=6; see Methods).

T47D cells = assay: Mammosphere formation in T47D cells; type: cell-based, human; conditions: T47D EV, WT, KR or S294A PR-B; estrogen 1 nM, progesterone 10 nM; 14 days
Method: Primary Mammospheres: Adherent cells were washed with PBS and dissociated enzymatically in 0.25% trypsin-EDTA (Invitrogen Corporation, Carlsbad, Calif.). Cells were sieved through a 40-μm sieve (BD FALCON, BD Biosciences, Bedford, Mass.) and analyzed microscopically for single-cellularity. Single cells were plated in ultra-low attachment plates (Corning, Inc., Corning, N.Y.) and cultured in a humid incubator. Cells were grown in a serum-free mammary epithelial basal medium (MEBM; Lonza Group, Basel, Switzerland) containing 1% B27 Supplement (Invitrogen Corporation, Carlsbad, Calif.), 1% penicillin-streptomycin (Invitrogen Corporation, Carlsbad, Calif.), 5 μg/ml insulin (Invitrogen Corporation, Carlsbad, Calif.), 20 ng/ml EGF (Sigma-Aldrich, St. Louis, Mo.), 1 ng/ml hydrocortisone (Sigma-Aldrich, St. Louis, Mo.), and 100 μM β-mercaptoethanol. […] Mammosphere Forming Efficiency (MFE) % was calculated by the number of mammospheres per well/number of cells seeded per well.
Secondary Mammospheres: Primary mammospheres were collected by centrifugation (5 min, 1000 rpm), and dissociated enzymatically in 0.25% typsin-EDTA. Cells were sieved through a 40-μm tip strainer (Bel-Art SP Scienceware, South Wayne, N.J.) and analyzed microscopically for single-cellularity. […] Mammosphere Forming Efficiency (MFE) % was calculated by the number of mammospheres per well/number of cells seeded per well. […]

ERK1/2 = assay: Breast tumor explants, phospho-ERK1/2 IHC; type: cell-based, human; conditions: progesterone 10 nM, 2 hours
[2] = test system: human breast tumor tissue (tumor explants); assay: Breast tumor explants cultured ex vivo, Ki-67 IHC (proliferation); type: cell-based; conditions: ER+/PR+ tumor explants, 48 hours; progesterone 10 nM; estrogen 1 nM and 10 nM; n=6
Text: De-identified breast tumor samples were collected after surgery and immediately processed for tissue explant maintenance on sponges in cell culture medium, as previously described (Ravindranathan et al. Nature Communications 2013, 4:1923). Samples were derived from six patients pathologically diagnosed with invasive ductal carcinoma (IDC) and scored positive for ER (94-100%) and PR (1-100%), and negative for HER2 expression. Tissue explants were starved in media containing hormone-stripped FBS for 24 hours, and then treated for 48 hours with (1) vehicle, (2) 1 nM estradiol, (3) 10 nM estradiol, (4) 1 nM progesterone, (5) 10 nM progesterone prior to processing for quantitation of Ki-67 levels by IHC. Across treatment conditions, statistical significance was tested for using one-way analysis-of-variance (ANOVA) followed by pairwise testing of all treatment groups using the TukeyHSD post-test with R statistical software (R Core Team: R: A language and environment for statistical computing. R Foundation for Statistical Computing, Vienna, Austria 2015, [available on the world wide web at r-project.org/]). In additional experiments, six explants were similarly treated with estrogen or progesterone (2 hours) but in combination with 1 uM U0126 (to inhibit ERKs 1/2) and phospho-Ser294 PR levels were measured by IHC. […]

BT474 cells = assay: Mammosphere formation in unmodified HER2+ BT474 cells; type: cell-based
Method: Primary Mammospheres: Adherent cells were washed with PBS and dissociated enzymatically in 0.25% trypsin-EDTA (Invitrogen Corporation, Carlsbad, Calif.). Cells were sieved through a 40-μm sieve (BD FALCON, BD Biosciences, Bedford, Mass.) and analyzed microscopically for single-cellularity. Single cells were plated in ultra-low attachment plates (Corning, Inc., Corning, N.Y.) and cultured in a humid incubator. […] Mammosphere Forming Efficiency (MFE) % was calculated by the number of mammospheres per well/number of cells seeded per well.
Secondary Mammospheres: Primary mammospheres were collected by centrifugation (5 min, 1000 rpm), and dissociated enzymatically in 0.25% typsin-EDTA. Cells were sieved through a 40-μm tip strainer (Bel-Art SP Scienceware, South Wayne, N.J.) and analyzed microscopically for single-cellularity. […] Mammosphere Forming Efficiency (MFE) % was calculated by the number of mammospheres per well/number of cells seeded per well.
The results were also validated in unmodified ER+/PR+BT474 cells. […] In this “high-kinase” context, PRs are readily phosphorylated on Ser294.

Compound: CC#C[C@]1(O)CC[C@H]2[C@@H]3CCC4=CC(=O)CCC4=C3[C@@H](c3ccc(N(C)C)cc3)C[C@@]21C [mifepristone]
- outcome in clinical trials for breast cancer (breast cancer): has not been successful

Compound: CC(=O)[C@H]1CC[C@H]2[C@@H]3CCC4=CC(=O)CC[C@]4(C)[C@H]3CC[C@]12C [progesterone]
- PR Ser294 phosphorylation in tumor explants [1]: induced robust PR Ser294 phosphorylation
- total numbers of primary and secondary mammospheres on addition of hormone to culture media (T47D cells): had no significant effect on total numbers in any condition
- activation of ERK1/2 (phospho-ERK1/2) in tumor explants (ERK1/2): accompanied by activation of ERK1/2
- percentage of Ki67-positive cells compared to vehicle treatment [2]: significantly higher percentage of Ki67-positive cells

Compound: CN(C)c1ccc([C@H]2C[C@]3(C)[C@@H](CC[C@]3(O)CCCO)[C@@H]3CCC4=CC(=O)CCC4=C32)cc1 [onapristone]
- effect on basal and progestin-stimulated primary mammosphere formation (BT474 cells; BT474, onapristone 100 or 1000 nM without or with R5020 10 nM): effectively reduced both basal and progestin-stimulated primary mammosphere formation
- secondary mammosphere formation (BT474 cells; BT474, onapristone-containing media): failed to form
